Results from US20060251692A1, “Use of glycol ethers as biodispersants in heating and cooling systems” (priority 2005, published 2006).

Tested on: biofilms
Assay: pilot site cooling tower (building downtown Montreal) treated with biodispersant, DATS clogging monitor and direct microbiological measurements

COC(C)COC(C)CO (stereo not drawn) [dipropylene glycol methyl ether]
dig out of deposits covering the inside walls of the tower (300 ppm in recirculating water, no bactericide): allowed first the dig out of the deposits
DATS clogging monitor measurements (after few days of treatment): the measurements were stabilized
direct measurements of the microbiological activity (bacterial population vs initial state) (without any bactericide injection): downwards stabilization of the bacterial population
